*1 amine or outer side, *2 acyl side, *3 side chain or, on linkers, in order; H or OH if unused. Where a SMILES comes first, the peptide text is derived from it. Bridges are numbered along the chain shown (N, C = ends). [ ]: non-standard residue; d: D form. The star is where a group is joined. X75 = CC(C)C(=O)N1C2C=C(c3ccc(Cl)cc3C[C@@H](C(=O)[*:2])N(C)[*:1])CC1COC2; X57 = CC(C)C(=O)N1C2C=C(c3ccc(Cl)cc3C[C@@H](C(=O)[*:2])N(C)[*:1])CC1CC2; X116 = CN([C@@H](Cc1cc(Cl)ccc1-c1cnc2c(c1)ncn2C)C(=O)[*:2])[*:1]; X24 = CN([C@@H](Cc1cc(Cl)ccc1-c1cnn(C(C)(C)C)c1)C(=O)[*:2])[*:1]; X68 = CN([C@@H](Cc1cc(Cl)ccc1-c1cnn(C2CC2)c1)C(=O)[*:2])[*:1]; X26 = CN([C@@H](Cc1cc(F)ccc1-c1cnn(C2CC2)c1)C(=O)[*:2])[*:1]; X97 = CN([C@@H](Cc1cc(Cl)ccc1-c1ccn2ncnc2c1)C(=O)[*:2])[*:1]; NMehhhLys(Me) = CN([C@@H](CCCCCCCN(C)[*:3])C(=O)[*:2])[*:1]; X15 = CN([C@@H](Cc1cc(Cl)ccc1-c1cnn2c1CCC2)C(=O)[*:2])[*:1]; X5 = CN([C@@H](Cc1cc(Cl)ccc1-c1cnn2c1OCCC2)C(=O)[*:2])[*:1]; X22 = CN([C@@H](Cc1cc(Cl)ccc1-c1cnn(C)c1)C(=O)[*:2])[*:1]; X109 = CN([C@@H](Cc1cc(Cl)ccc1-c1ccncc1)C(=O)[*:2])[*:1]; NMe(hhhLys) = CN([C@@H](CCCCCCCN[*:3])C(=O)[*:2])[*:1]; Oxane2carbonyl(2R-CF3) = O=C([C@@]1(C(F)(F)F)CCCCO1)*; Cyclobutanecarbonyl(1-CF3) = O=C(C1(C(F)(F)F)CCC1)*; cBuCO(3,3-F2-1-CF3) = O=C(C1(C(F)(F)F)CC(F)(F)C1)*; Pro(trans-4-F) = O=C(O)[C@@H]1C[C@@H](F)CN1; X27 = O=C([C@]1(C(F)(F)F)CCCCO1)*; Gly(cPr) = N[C@H](C(=O)O)C1CC1
How the values were obtained:
WI-38 cells = assay: MTT proliferation assay, WI-38; assay type: cell-based; conditions: 3 days compound exposure, 1:3 serial dilution starting at 10 μM;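 also: Eight- or ten-point dilution series, with exposure length chosen to span about three to four cell doublings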
OVCAR3 cells = assay: MTT proliferation assay, OVCAR3; assay type: cell-based; conditions: 5 days compound exposure, 1:3 serial dilution starting at 10 μM;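 also: compound given as an 8- or 10-point series, one day after plating, with exposure covering roughly 3-4 cell doublings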
CyclinB1/CDK1 = target: T1, CyclinB1/CDK1 (Homo sapiens, UniProt P14635); assay: Fluorescence Polarization (FP) competitive binding assay, Cyclin B1/Cdk1; conditions: 10 nM Cyclin B1/Cdk1, 2 nM FAM probe; average of 2-3 independent experiments; read-out: Cyclin B FP IC50;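 also: fluorescence polarization read after equilibration at room temperature, with IC50 taken from serially diluted dose-response curves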
T1 construct: purchased Eurofins, discovery 14-450

NCI-H1048 cells = assay: MTT proliferation assay, NCI-H1048; assay type: cell-based; conditions: 5 days compound exposure, 1:3 serial dilution starting at 10 μM;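 also: Dose-response in 96-well plates over 8 or 10 concentration points, with exposure spanning 3-4 cell doublings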
CyclinA2/CDK2 = target: T2, CyclinA2/CDK2 (Homo sapiens, UniProt P20248); assay: Fluorescence Polarization (FP) competitive binding assay, Cyclin A2/Cdk2; conditions: 8 nM Cyclin A2/Cdk2, 2 nM FAM probe; average of 2-3 independent experiments; read-out: Cyclin A FP IC50;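 also: plates equilibrated two hours at room temperature before polarization reading, IC50 fitted from eight-concentration compound titration curves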
T2 construct: purchased CRELUX Protein Services

CyclinE1/CDK2 = target: T3, CyclinE1/CDK2 (Homo sapiens, UniProt P24864); assay: Fluorescence Polarization (FP) competitive binding assay, Cyclin E1/Cdk2; conditions: 10 nM Cyclin E1/Cdk2, 2 nM FAM probe; average of 2-3 independent experiments; read-out: Cyclin E FP IC50;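 also: readings taken after two-hour equilibration at room temperature in HEPES buffer with NaCl, DTT, NP-40 and BSA, IC50 fitted from eight-concentration serial dilution series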
T3 construct: purchased Eurofins, discovery 14-475

SMILES	GI50 (WI-38 cells)	GI50 (OVCAR3 cells)	IC50 (CyclinB1/CDK1)	GI50 (NCI-H1048 cells)	IC50 (CyclinA2/CDK2)	IC50 (CyclinE1/CDK2)
CC(C)C[C@@H]1NC(=O)[C@@H](N(C)C(=O)[C@@H](NC(=O)[C@@H]2C[C@@H](F)CN2C(=O)C2(C(F)(F)F)CCC2)C2CC2)C/C=C\CCCCN(C)C(=O)[C@H](Cc2cc(Cl)ccc2-c2cnn(C)c2)N(C)C1=O [Example 173]	12700 nM	10 nM	20 nM	10 nM	20 nM	100 nM
CC(C)C[C@@H]1NC(=O)[C@@H](N(C)C(=O)[C@@H](NC(=O)[C@@H]2C[C@@H](F)CN2C(=O)[C@@]2(C(F)(F)F)CCCCO2)C2CC2)C/C=C\CCCCN(C)C(=O)[C@H](Cc2cc(Cl)ccc2-c2cnn(C)c2)N(C)C1=O [Example 174]	6980 nM	10 nM	20 nM	10 nM	20 nM	100 nM
CC(C)C[C@@H]1NC(=O)[C@@H](N(C)C(=O)[C@@H](NC(=O)[C@@H]2C[C@@H](F)CN2C(=O)C2(C(F)(F)F)CC(F)(F)C2)C2CC2)C/C=C\CCCCN(C)C(=O)[C@H](Cc2cc(Cl)ccc2-c2cnn(C3CC3)c2)N(C)C1=O [Example 175]	6850 nM	10 nM	20 nM	10 nM	20 nM	130 nM
CC(C)C[C@@H]1NC(=O)[C@@H](N(C)C(=O)[C@@H](NC(=O)[C@@H]2C[C@@H](F)CN2C(=O)C2(C(F)(F)F)CCC2)C2CC2)C/C=C\CCCCN(C)C(=O)[C@H](Cc2cc(Cl)ccc2-c2cnn(C3CC3)c2)N(C)C1=O [Example 176]	5480 nM	10 nM	20 nM	10 nM	20 nM	100 nM
CC(C)C[C@@H]1NC(=O)[C@@H](N(C)C(=O)[C@@H](NC(=O)[C@@H]2C[C@@H](F)CN2C(=O)C2(C(F)(F)F)CC(F)(F)C2)C2CC2)CCCCCCCN(C)C(=O)[C@H](Cc2cc(Cl)ccc2-c2cnc3c(c2)ncn3C)N(C)C1=O [Example 177] ({cBuCO(3,3-F2-1-CF3)}-[Pro(trans-4-F)][Gly(cPr)][NMehhhLys(Me)]L[X116]; lactam 3-C)	8960 nM	10 nM	20 nM	10 nM	20 nM	460 nM
CC(C)C[C@@H]1NC(=O)[C@@H](N(C)C(=O)[C@@H](NC(=O)[C@@H]2C[C@@H](F)CN2C(=O)C2(C(F)(F)F)CC(F)(F)C2)C2CC2)CCCCCCCN(C)C(=O)[C@H](Cc2cc(Cl)ccc2-c2ccn3ncnc3c2)N(C)C1=O [Example 179] ({cBuCO(3,3-F2-1-CF3)}-[Pro(trans-4-F)][Gly(cPr)][NMehhhLys(Me)]L[X97]; lactam 3-C)	11600 nM	30 nM	20 nM	10 nM	30 nM	1130 nM
CC(C)C[C@@H]1NC(=O)[C@@H](N(C)C(=O)[C@@H](NC(=O)[C@@H]2C[C@@H](F)CN2C(=O)[C@]2(C(F)(F)F)CCCCO2)C2CC2)CCCCCCCN(C)C(=O)[C@H](Cc2cc(Cl)ccc2-c2cnn(C)c2)N(C)C1=O [Example 183] (X27-[Pro(trans-4-F)][Gly(cPr)][NMehhhLys(Me)]L[X22]; lactam 3-C)	5070 nM	20 nM	20 nM	10 nM	30 nM	280 nM
CC(C)C[C@@H]1NC(=O)[C@@H](N(C)C(=O)[C@@H](NC(=O)[C@@H]2C[C@@H](F)CN2C(=O)[C@@]2(C(F)(F)F)CCCCO2)C2CC2)CCCCCCCN(C)C(=O)[C@H](Cc2cc(Cl)ccc2-c2cnn(C)c2)N(C)C1=O [Example 184] ({Oxane2carbonyl(2R-CF3)}-[Pro(trans-4-F)][Gly(cPr)][NMehhhLys(Me)]L[X22]; lactam 3-C)	3650 nM	10 nM	20 nM	10 nM	20 nM	100 nM
CC(C)C[C@@H]1NC(=O)[C@@H](N(C)C(=O)[C@@H](NC(=O)[C@@H]2C[C@@H](F)CN2C(=O)C2(C(F)(F)F)CCC2)C2CC2)CCCCCCCN(C)C(=O)[C@H](Cc2cc(Cl)ccc2-c2cnn(C)c2)N(C)C1=O [Example 185] ({Cyclobutanecarbonyl(1-CF3)}-[Pro(trans-4-F)][Gly(cPr)][NMehhhLys(Me)]L[X22]; lactam 3-C)	10400 nM	10 nM	20 nM	10 nM	20 nM	110 nM
CC(C)C[C@@H]1NC(=O)[C@@H](N(C)C(=O)[C@@H](NC(=O)[C@@H]2C[C@@H](F)CN2C(=O)C2(C(F)(F)F)CCC2)C2CC2)CCCCCCCN(C)C(=O)[C@H](Cc2cc(F)ccc2-c2cnn(C3CC3)c2)N(C)C1=O [Example 186] ({Cyclobutanecarbonyl(1-CF3)}-[Pro(trans-4-F)][Gly(cPr)][NMehhhLys(Me)]L[X26]; lactam 3-C)	8680 nM	10 nM	20 nM	10 nM	20 nM	100 nM
CC(C)C[C@@H]1NC(=O)[C@@H](N(C)C(=O)[C@@H](NC(=O)[C@@H]2C[C@@H](F)CN2C(=O)C2(C(F)(F)F)CC(F)(F)C2)C2CC2)CCCCCCCN(C)C(=O)[C@H](Cc2cc(Cl)ccc2-c2cnn(C(C)(C)C)c2)N(C)C1=O [Example 187] ({cBuCO(3,3-F2-1-CF3)}-[Pro(trans-4-F)][Gly(cPr)][NMehhhLys(Me)]L[X24]; lactam 3-C)	8660 nM	10 nM	20 nM	10 nM	20 nM	340 nM
CC(C)C[C@@H]1NC(=O)[C@@H](N(C)C(=O)[C@@H](NC(=O)[C@@H]2C[C@@H](F)CN2C(=O)C2(C(F)(F)F)CCC2)C2CC2)CCCCCCCNC(=O)[C@H](Cc2cc(Cl)ccc2-c2cnn(C3CC3)c2)N(C)C1=O [Example 188] ({Cyclobutanecarbonyl(1-CF3)}-[Pro(trans-4-F)][Gly(cPr)][NMe(hhhLys)]L[X68]; lactam 3-C)	3080 nM	20 nM	20 nM	10 nM	20 nM	230 nM
CC(C)C[C@@H]1NC(=O)[C@@H](N(C)C(=O)[C@@H](NC(=O)[C@@H]2C[C@@H](F)CN2C(=O)C2(C(F)(F)F)CC(F)(F)C2)C2CC2)CC=CCCCCNC(=O)[C@H](Cc2cc(Cl)ccc2-c2cnn(C3CC3)c2)N(C)C1=O [Example 189]	3670 nM	80 nM	20 nM	130 nM	50 nM	850 nM
CC(C)C[C@@H]1NC(=O)[C@@H](N(C)C(=O)[C@@H](NC(=O)[C@@H]2C[C@@H](F)CN2C(=O)C2(C(F)(F)F)CC(F)(F)C2)C2CC2)CCCCCCCN(C)C(=O)[C@H](Cc2cc(Cl)ccc2-c2cnn3c2CCC3)N(C)C1=O [Example 190] ({cBuCO(3,3-F2-1-CF3)}-[Pro(trans-4-F)][Gly(cPr)][NMehhhLys(Me)]L[X15]; lactam 3-C)	1980 nM	10 nM	20 nM	10 nM	20 nM	660 nM
CC(C)C[C@@H]1NC(=O)[C@@H](N(C)C(=O)[C@@H](NC(=O)[C@@H]2C[C@@H](F)CN2C(=O)C2(C(F)(F)F)CC(F)(F)C2)C2CC2)CCCCCCCN(C)C(=O)[C@H](Cc2cc(Cl)ccc2-c2cnn3c2OCCC3)N(C)C1=O [Example 191] ({cBuCO(3,3-F2-1-CF3)}-[Pro(trans-4-F)][Gly(cPr)][NMehhhLys(Me)]L[X5]; lactam 3-C)	2050 nM	10 nM	20 nM	10 nM	20 nM	260 nM
CC(C)C[C@@H]1NC(=O)[C@@H](N(C)C(=O)[C@@H](NC(=O)[C@@H]2C[C@@H](F)CN2C(=O)C2(C(F)(F)F)CC(F)(F)C2)C2CC2)CCCCCCCN(C)C(=O)[C@H](Cc2cc(Cl)ccc2-c2ccncc2)N(C)C1=O [Example 192] ({cBuCO(3,3-F2-1-CF3)}-[Pro(trans-4-F)][Gly(cPr)][NMehhhLys(Me)]L[X109]; lactam 3-C)	3510 nM	20 nM	20 nM	20 nM	20 nM	1140 nM
CC(C)C[C@@H]1NC(=O)[C@@H](N(C)C(=O)[C@@H](NC(=O)[C@@H]2C[C@@H](F)CN2C(=O)C2(C(F)(F)F)CC(F)(F)C2)C2CC2)CCCCCCCNC(=O)[C@H](Cc2cc(Cl)ccc2C2=CC3CCC(C2)N3C(=O)C(C)C)N(C)C1=O (stereo partly drawn) [Example 193] ({cBuCO(3,3-F2-1-CF3)}-[Pro(trans-4-F)][Gly(cPr)][NMe(hhhLys)]L[X57]; lactam 3-C)	7580 nM	20 nM	20 nM	10 nM	20 nM	710 nM
CC(C)C[C@@H]1NC(=O)[C@@H](N(C)C(=O)[C@@H](NC(=O)[C@@H]2C[C@@H](F)CN2C(=O)C2(C(F)(F)F)CC(F)(F)C2)C2CC2)CCCCCCCNC(=O)[C@H](Cc2cc(Cl)ccc2C2=CC3COCC(C2)N3C(=O)C(C)C)N(C)C1=O (stereo partly drawn) [Example 194] ({cBuCO(3,3-F2-1-CF3)}-[Pro(trans-4-F)][Gly(cPr)][NMe(hhhLys)]L[X75]; lactam 3-C)	5610 nM	10 nM	20 nM	10 nM	20 nM	540 nM
